Measured values: US20240390369A1, “METHODS FOR DETERMINING RESPONSIVENESS TO TYK2 INHIBITORS” (Bristol-Myers Squibb Company, priority 2021, published 2024)
Where “and” joins values, the source holds several entries; their conditions need not be identical. Equal values may be shown once.

Test system: patients with psoriatic arthritis
Assay: Phase 2 trial in psoriatic arthritis: PASI75 response at week 16
Assay type: in vivo, human
Details: for Interaction Term for PASI75 response (ratio of odds ratios): week 16; for PASI75 response rate over time / Number of subjects, PASI75 Non-responder at week 16 / Number of subjects, PASI75 Responder at week 16 / Number of subjects, PASI75 Non-responder / Number of subjects, PASI75 Responder / Number of subjects: 6 mg QD; for PASI75 response rate over time: 12 mg QD, placebo, sixteen-week treatment period
Experimental: In a double-blind Phase 2 trial, 203 patients with psoriatic arthritis were randomized into three groups: deucravacitinib 6 mg once daily (N=70), deucravacitinib 12 mg once daily (N=67), or placebo (N=66). All subjects had active psoriatic arthritis according to the Classification Criteria for Psoriatic Arthritis (CASPAR); for active disease, these criteria required ≥3 tender joint count, ≥3 swollen joint count, and a C-reactive protein level above 3 mg/L. Other inclusion criteria included the following: presence of at least one plaque psoriasis lesion, and prior treatment failure with a non-biologic disease modifying anti-rheumatic drug, a non-steroidal anti-inflammatory drug, or a steroid. With respect to treatment history, approximately 70% of subjects had not received prior treatment with a biologic and were biologic naïve, while up to 30% of subjects had failed or had been intolerant to one TNF-inhibitor (TNF=Tumor necrosis factor, also known as TNFα). Randomization was stratified by prior TNF-inhibitor use (experienced/naïve) and body weight (<90 kg and ≥90 kg).
Clinical measures included the Psoriasis […] (PASI) score for skin psoriasis, American College of Rheumatology 20 (ACR20) response, Psoriatic Arthritis Disease Activity Score (PASDAS), Health Assessment Questionnaire-Disability Index (HAQ-DI), and Disease Activity Score 28 CRP (DAS28). To evaluate the predictive value of different protein measurements for the clinical response to deucravacitinib, baseline protein concentrations for responders and non-responders, as defined by ACR20 or PASI75 at week 16, were compared for each arm (placebo, 6 mg deucravacitinib once-daily, and 12 mg deucravacitinib once-daily).
In addition, a logistic regression model was fit, to determine whether baseline disease score (dichotomized by the median baseline score, into baseline score high and baseline score low groups) was associated with response status. The model generated an odds ratio for each dosed arm versus placebo, in baseline score high and baseline score low groups.
Boxplots for baseline protein level by response were generated with a horizontal line indicating the median protein level at baseline. For each treatment arm, a two-sample t-test was performed to test whether mean baseline serum protein level was different in responders versus non-responders. A Wilcoxon rank sum test (Mann-Whitney U test) was also performed to evaluate the difference in median serum protein level between responders and non-responders. Further, barplots of ACR20 and PASI75 response rate at week 16 for each treatment arm were generated for all subjects (protein level high and protein level low subjects, dichotomized according to median baseline level). Line plots of ACR20 and PASI75 response rate over time for each treatment arm were generated for protein level high and protein level low groups. Logistic regression models were also fit to evaluate associations between baseline protein levels and clinical outcome.
For certain analyses described herein, patients were dichotomized by median values (e.g., of the proteins listed above or other measures) into “high” and “low” groups, such that the high group had values above the median and the low group had values less than or equal to the median.
In addition, logistic regression models were fit for response measures ACR20 and PASI75, to generate the odds ratio of each of the deucravacitinib treatment arms versus placebo, in BD2-high and BD2-low groups. The following logistic regression models were used: • For ACR20 response status: ACR20 (Y/N)=treatment arm+BD2 group+treatment arm*BD2 group+TNF-inhibitor use+baseline weight (continuous). • For PASI75 response status: PASI75 (Y/N)=treatment arm+BD2 group+treatment arm*BD2 group+TNF-inhibitor use+baseline weight (continuous). […]

[1] = Above median baseline CRP level
[2] = Below median baseline CRP level

[2H]C([2H])([2H])NC(=O)c1nnc(NC(=O)C2CC2)cc1Nc1cccc(-c2ncn(C)n2)c1OC [deucravacitinib, 6-(cyclopropanecarboxamido)-4-((2-methoxy-3-(1-methyl-1H-1,2,4-triazol-3-yl)phenyl)amino)-N-(methyl-d3)pyridazine-3-carboxamide]
Interaction Term for PASI75 response (ratio of odds ratios) (6 mg QD vs placebo: BD2 high versus BD2 low): 11.628
Interaction Term: treatment arm*CRP group, PASI75 (6 mg QD vs placebo: CRP high versus CRP low): 1.67
Interaction Term: treatment arm*CRP group, PASI75 (6 mg QD vs placebo: CRP-high versus CRP-low, adjusted for baseline PASI score): 1.67
Interaction Term: treatment arm*IL-17A group, PASI75 (6 mg QD vs placebo: IL-17A high versus IL-17A low, adjusted for baseline PASI score): 22.889
Interaction Term for PASI75 response (ratio of odds ratios) (6 mg QD vs placebo: IL-17A high versus IL-17A low): 22.851
Interaction Term for PASI75 response (ratio of odds ratios) (6 mg QD vs placebo: baseline PASI high versus PASI low): 5.51 and 5.514
PASI75 response rate over time (BD2-high and BD2-low groups (FIG. 9)): dose-dependent PASI75 response rate over time was observed in the BD2-high group but not in the BD2-low group
PASI75 response rate over time (CRP-high and CRP-low groups (FIG. 40)): higher response rates than the placebo arm
PASI75 response rate over time (IL-17A-high and IL-17A-low groups (FIG. 23)): dose-dependent PASI75 response over time was observed in IL-17A-high but not in IL-17A-low PsA patients
PASI75 response rate over time (IL-19-high and IL-19-low groups (FIG. 16)): dose-dependent PASI75 response over time was observed in IL-19-high but not in IL-19-low PsA patients
Number of subjects, PASI75 Non-responder at week 16 [1]: 17
Number of subjects, PASI75 Responder at week 16 [1]: 16
Number of subjects, PASI75 Non-responder at week 16 [2]: 17
Number of subjects, PASI75 Responder at week 16 [2]: 9
Number of subjects, PASI75 Non-responder (CRP-high-PASI-high): 4
Number of subjects, PASI75 Responder (CRP-high-PASI-high): 11
Number of subjects, PASI75 Non-responder (CRP-high-PASI-low): 13
Number of subjects, PASI75 Responder (CRP-high-PASI-low): 5
Number of subjects, PASI75 Non-responder (CRP-low-PASI-high): 7
Number of subjects, PASI75 Responder (CRP-low-PASI-high): 5
Number of subjects, PASI75 Non-responder (CRP-low-PASI-low): 10
Number of subjects, PASI75 Responder (CRP-low-PASI-low): 4
Number of subjects (PASI75 non-responder at week 16, above baseline PASI median 6.6): 11
Number of subjects (PASI75 non-responder at week 16, above median baseline BD2 level): 17
Number of subjects (PASI75 non-responder at week 16, above median baseline IL-17A level): 14
Number of subjects (PASI75 non-responder at week 16, above median baseline IL-19 level): 18
Number of subjects (PASI75 non-responder at week 16, below baseline PASI median 6.6): 23
Number of subjects (PASI75 non-responder at week 16, below median baseline BD2 level): 16
Number of subjects (PASI75 non-responder at week 16, below median baseline IL-17A level): 20
Number of subjects (PASI75 non-responder at week 16, below median baseline IL-19 level): 16
Number of subjects (PASI75 non-responder, BD2-high-PASI-high): 8
Number of subjects (PASI75 non-responder, BD2-high-PASI-low): 12
Number of subjects (PASI75 non-responder, BD2-low-PASI-high): 3
Number of subjects (PASI75 non-responder, BD2-low-PASI-low): 11
Number of subjects (PASI75 non-responder, IL-17A-high-PASI-high): 8
Number of subjects (PASI75 non-responder, IL-17A-high-PASI-low): 6
Number of subjects (PASI75 non-responder, IL-17A-low-PASI-high): 3
Number of subjects (PASI75 non-responder, IL-17A-low-PASI-low): 17
Number of subjects (PASI75 non-responder, IL-19-high-PASI-high): 9
Number of subjects (PASI75 non-responder, IL-19-high-PASI-low): 9
Number of subjects (PASI75 non-responder, IL-19-low-PASI-high): 2
Number of subjects (PASI75 non-responder, IL-19-low-PASI-low): 14
Number of subjects (PASI75 responder at week 16, above baseline PASI median 6.6): 16
Number of subjects (PASI75 responder at week 16, above median baseline BD2 level): 22
Number of subjects (PASI75 responder at week 16, above median baseline IL-17A level): 19
Number of subjects (PASI75 responder at week 16, above median baseline IL-19 level): 19
Number of subjects (PASI75 responder at week 16, below baseline PASI median 6.6): 9
Number of subjects (PASI75 responder at week 16, below median baseline BD2 level): 15
Number of subjects (PASI75 responder at week 16, below median baseline IL-17A level): 6
Number of subjects (PASI75 responder at week 16, below median baseline IL-19 level): 6
Number of subjects (PASI75 responder, BD2-high-PASI-high): 14
